From paper PMC10599528, “GPC-100, a novel CXCR4 antagonist, improves in vivo hematopoietic cell mobilization when combined with propranolol” (PLOS ONE, 2023)
Read-outs that look alike come from different tables or passages of the source.

B1: G-CSF: Granulocyte-colony stimulating factor; recombinant murine G-CSF in the mouse studies (protein, UniProt P09920 31-208, looked up)
Granulocyte …: VPLVTVSALPPSLPLPRSFLLKSLEQVRKIQASGSVLLEQLCATYKLCHPEELVLLGHSLGIPKASLSGCSSQALQQTQCLSQLHSGLCLYQGLLQALSGISPALAPTLDLLQLDVANFATTIWQQMENLGVAPTVQPTQSAMPAFTSAFQRRAGGVLAISYLQGFLETARLALHHLA

Legend:
[1] = test system: CXCR4 and β2AR; assay: Calcium flux in MDA-MB-231 cells endogenously expressing CXCR4 and β2AR, CXCL12 plus epinephrine; assay type: cell-based; settings: 10 μM of each antagonist; 200 nM CXCL12, 10 μM epinephrine
Method: MDA-MB-231 cells endogenously expressing CXCR4 and β2AR, or transduced with adenoviruses encoding CXCR4 for overexpression were used for calcium flux. Cells were cultured for 2 days prior to running the assay and seeded at 8×10^4 cells/well in a 96-well black clear-bottom microplate. The following day, cells were stained with Cal-520 AM (AAT Bioquest) for 2 h at 37°C and treated with antagonists for 30 min followed by agonist stimulation. Intracellular calcium flux was measured using a Flexstation 3 microplate reader (Molecular Devices).

[2] = test system: U937 cells; assay: CXCL12-mediated transwell migration of U937 cells; settings: Homo sapiens, U-937, 24 h, read-out: IC50, blockade of CXCL12-mediated migration
Method: (§1) Cells were allowed to migrate toward CXCL12 in the presence or absence of the antagonists for 4 h (MM.1S) or 24 h (U937) at 37°C. The migration of U937 cells was measured using PrestoBlue Cell Viability Reagent (Invitrogen). For MM.1S cell line, the migrated cells were counted by flow cytometry. The fluorescence intensity (560 nm/590 nm excitation/emission) was detected using a Varioskan LUX Multimode Microplate Reader.
MM.1S (A) or U937 (B) cells were
(§2) suspended in serum-free media containing 0.5% BSA at 5X106 cells/ml and 100 μl of cell
(§3) suspension was added to transwell insert. SDF-1/CXCL12 at the indicated concentrations in 800
(§4) μl of serum-free media containing 0.5% BSA was added to the lower chamber of the transwell.
(§5) The transwell insert with 100 μl cell suspension was put on the lower chamber very carefully
(U937) to allow cell migration.

[3] = test system: MM.1S cells; assay: CXCL12-induced transwell migration of MM.1S cells; settings: Homo sapiens, MM1.S, 4 h, read-out: IC50, blockade of CXCL12-induced migration
Method: as §1
MM.1S (A) or U937 (B) cells were
as §2, §3, §4, §5
(U937) to allow cell migration.

[4] = test system: circulating WBCs; assay: In vivo WBC mobilization to peripheral blood (CBC analysis); parameters: species or system C57BL/6J mice
Method: Studies were performed at a facility accredited by the Association for Assessment and Accreditation of Laboratory Animal Care and in strict accordance with the recommendations in the Guide for the Care and Use of Laboratory Animals of the National Institute of Health. […] C57BL/6J mice (female, 6–9 weeks old) were ordered from Jackson Laboratories and allowed to habituate for one week before handling. They were housed 5 per cage and had free access to food and water.
Mice were monitored daily and weighed prior to drug administration. Based on the body weight data, mice were randomized into groups using the randomization tool in Benchling Studies randomization software. PB was collected by submental bleeding (non-terminal) or cardiac puncture (terminal). For terminal blood collections, mice were placed in an induction chamber with 2.5–4% isoflurane and then a maintenance dose of 2–3% through a nose cone. A toe pinch on all four quadrants was applied to confirm the surgical plane of anesthesia. Upon completion of terminal blood collection from cardiac puncture, the mice were euthanized via cervical dislocation while still under the effects of isoflurane. Approximately 25 μL blood was used for CBC analysis and the remaining blood was processed for flow cytometry or colony forming unit (CFU) assay. For non-terminal submental bleeding, a 4mm lancet was used to puncture the linguofacialis vein under the chin. […] For the time-course of mobilization, each mouse was bled twice. Submental bleeding was performed at 0.5 h, 1 h or 2 h after the respective dosing and cardiac puncture was performed at 3 h, 4 h and 6 h post-dose.
Blood samples were processed for complete blood count (CBC) analysis using the Abaxis VetScan HM5 hematology analyzer (Abaxis), which reports 18-parameters including WBC, lymphocytes, neutrophils, monocytes, platelets, hemoglobin, RBC and morphology.

[5] = test system: circulating WBCs; settings: mice, 5 mg/kg SC; cited from earlier work
[6] = test system: CD34+ cells; settings: at least; cited from earlier work

Molecule	inhibition of synergistic calcium flux induced by CXCL12 and epinephrine [1]	IC50 [2]	IC50 [3]	increase in circulating WBCs compared to the vehicle ([4]; 1 hour post-drug, GPC-100 30 mg/kg IV, AMD3100 5 mg/kg SC, single injection)	time of peak mobilization ([4]; time-course 30 min to 6 hours post-drug, GPC-100 30 mg/kg IV, AMD3100 5 mg/kg SC)	time of peak mobilization [5]	increase in WBC mobilization ([4]; G-CSF 0.1 mg/kg SC BID days 2-6, propranolol 20 mg/kg IP 7 days, GPC-100 30 mg/kg IV or AMD3100 5 mg/kg SC day 7)	MM patients in whom an optimal number of HSC is not mobilized [6]
CC(C)NCC(O)COc1cccc2ccccc12 (stereo not drawn) [propranolol]	partially inhibited							
c1cc(CN2CCCNCCNCCCNCC2)ccc1CN1CCCNCCNCCCNCC1 [AMD3100]	partially inhibited	42 nM	80 nM	3 fold	2 h	1 h		
B1							4.5 fold	40–50%
